Experimental data published in patent publication US20140127235A1, “TARGETING HK alpha FOR CONTROLLING BLOOD PRESSURE AND REGULATING ELECTROLYTE BALANCE” (UNIVERSITY OF FLORIDA RESEARCH FOUNDATION, INC., priority 2011, published 2014).

System: HKα1 mRNA
Assay: Real time PCR of renal HKα1 mRNA expression in DOCP-treated mice
Type: in vivo, mouse
Details: cortex, outer medulla and inner medulla, eight days after DOCP, normal diet
Source text: The principal mechanism of mineralocorticoid action is through modulation of target gene transcription.^15 Therefore, the next experiments evaluated the effect of DOCP on renal HKα1 and HKα2 mRNA expression. Real time quantitative PCR was used to investigate changes in steady state mRNA levels of H^+,K^+-ATPase α subunits, HKα1 and HKα2, in cortex, outer medulla, and inner medulla of control and DOCP-treated mice.
RNA was recovered from cortex, medulla, and inner medulla with TRIzol reagent (Invitrogen). RNA was treated with DNase 1 (Ambion DNA Free) and converted to cDNA using SuperScript III (Invitrogen). For real time quantitative PCR, 20 ng cDNA was used to quantify mRNA expression with TaqMan Gene Expression (Applied Biosystems) primer/probe sets for HKα1 (Atp4a, Mm00444423_m1), HKα2 (Atp12a, Mm0131809_m1), and β-actin (Actb, Mm00607939_s1). Cycle threshold (Ct) values were normalized to β-actin, and relative expression (control set to 100%) was calculated by the ΔΔCt method.^28

Q: For `CC(C)(C)C(=O)OCC(=O)[C@H]1CC[C@H]2[C@@H]3CCC4=CC(=O)CC[C@]4(C)[C@H]3CC[C@]12C` [DOCP, desoxycorticosterone pivalate], which “HKα1 mRNA expression compared to control” value is on record?
A: not significantly altered
